Data on 2 substances can be found in patent US7256172B1, “Method of treatment and agents useful for same” (The University of Melbourne, priority 1998, dated 2007).

Where “and” joins values, the source holds several entries; their conditions need not be identical. Equal values may be shown once. Read-outs that look alike come from different tables or passages of the source. No end group written: not given here.

The test system of one experiment is mouse bronchial rings. To be noted: for relaxation in presence of NO blockers: L—NOARG (100 μM) and HbO (20 μM); for response of epithelium-intact bronchi: contracted to approximately 40% Fmax with carbachol; for relaxation after removal of the epithelium: epithelium removed with 0.1% v/v Triton X-100; for response in presence of cyclooxygenase inhibitors: indomethacin (3 μM) or aspirin (100 μM); for maximum relaxation (Rmax) / sensitivity (pEC50): main bronchi with epithelium; for maximum relaxation (Rmax): % of initial force to carbachol; for sensitivity (pEC50): contracted with carbachol; for response after desensitisation to thrombin: post-thrombin; for response after desensitisation to trypsin: post-trypsin. From the text: (§1) The right and left main bronchi and their first order branches of specific pathogenfree (SPF) Balb/c mice (15–20 g; either sex), Hartley tricolour guinea-pigs (300–400 g; male) and Sprague-Dawley rats (200–350 g; either sex), all killed by either cervical dislocation or overdosed (i.p.) with sodium pentobarbitone, were cleared of surrounding connective tissue, nerves and blood vessels under a dissecting microscope and placed in cold, carbogenated (95% v/v O2,5% v/v CO2) Krebs solution (Kemp and Cocks, 1997). Human airway preparations (0.5–1 mm in external diameter) were dissected from lungs of cancer patients undergoing thoracotomy at The Royal Melbourne Hospital, Melbourne, Australia. The epithelium was removed from some bronchi either by mechanical abrasion of the luminal surface (guinea-pig) or by brief, gentle intraliminal flushing of the airways with Krebs containing 0.1% v/v Triton-X100 (mouse and rat). In each case, removal of the epithelium was verified histologically in 8 μm formalin-fixed, paraffin sections stained with haemotoxylin and eosin. Ring segments (approximately 2 mm long) of bronchi and bronchioles were mounted in Krebs (37° C.) on stainless steel wires (40 μm) in dual channel (5 ml) Mulvany-Halpern myographs (JP Trading, Aarhus, Denmark) to record changes in isometric force (Kemp and Cocks, 1997). After equilibration at a passive force between 0.2 g and 0.3 g, tissues were contracted to their maximum levels of active force (Fm.),) with acetylcholine (30 μM), thoroughly washed with Krebs and allowed to return to baseline. Various drugs or their vehicles were then added and 30 min later all tissues were contracted to approximately 40% Fmax with titrated concentrations of carbachol (10–500 nM). The L-type voltage-operated Ca^2+ channel inhibitor, nifedipine (0.3 μM) was added to all mouse and rat tissues after obtaining Fmax to control characteristic phasic contractile activity with carbachol.
If no response occurred the tissues were then exposed to cumulative concentrations of either SLIGRL—NH2 (SEQ ID NO:2) or SFLLRN—NH2 (SEQ ID NO:1) (0.1–30 μM).
(§2) Results are presented as mean±s.e mean and pEC50 (sensitivity) values were calculated by fitting concentration-response curves to a four parameter logistic function (Kemp and Cocks, 1997) using Graphpad Prism (version 2.0). Statistical comparison of mean pEC50 and maximum response (Rmax) values were compared by two-tailed unpaired Student's t-tests or one way analysis of variance (ANOVA) with Tukey-Kramer's t-tests for multiple comparisons. P<0.05 was accepted as significant. Unless specified, all averaged data are from n>5 experiments.
Mouse bronchus preparations were carefully mounted horizontally on fine (40 μm) stainless steel wires attached to the jaws of a Mulvany-Halpem myograph. After 60 min at 37° C., all rings were stretched to 0.5 g passive force, which had been determined in preliminary experiments to be optimal, and allowed to recover from that stretch for a further 30 min. Maximum contraction (Fmax) in each tissue was then determined with exogenously applied acetylcholine (ACh; 30 μM) followed by washout. A further 30 min equilibration time was allowed before the tissues were actively contracted to between 20% and 60% of their individual Fm.” values with titrated concentrations of carbachol (10–100 nM). […] In some cases, tissues were treated with a range of drugs prior to contraction to approximately […] Fmax. These included the cyclooxygenase inhibitors indomethacin and aspirin, the nitric oxide (NO) synthase inhibitor N′-nitro-L-(L-NOARG), the NO scavenger oxyhaemoglobin (Hb0), and the L-voltage-operated Cat' channel inhibitor nifedipine.
After an initial passive stretch to 0.5 g (Ti) and recovery, each ring was contracted with acetylcholine (Ach; 30 μM). The contraction was taken as the tissue maximum and referred to as Fmax.

Experiment [1] deals with guinea-pig isolated bronchi.
Text: as §1
Mouse bronchus preparations were carefully mounted horizontally on fine (40 μm) stainless steel wires attached to the jaws of a Mulvany-Halpem myograph. After 60 min at 37° C., all rings were stretched to 0.5 g passive force, which had been determined in preliminary experiments to be optimal, and allowed to recover from that stretch for a further 30 min. Maximum contraction (Fmax) in each tissue was then determined with exogenously applied acetylcholine (ACh; 30 μM) followed by washout. A further 30 min equilibration time was allowed before the tissues were actively contracted to between 20% and 60% of their individual Fm.” values with titrated concentrations of carbachol (10–100 nM).

The subject of experiment [2] is human coronary artery rings.
The test system of the next experiment is rat bronchioles.
Text: as §1
as §2, with “All cumulative responses (relaxations and contractions) were normalised as percentages of the initial level of active force to carbachol. Results” for “Results”

For experiment [3], the system named is first generation branches of the mouse main bronchi. To be noted: mouse bronchioles.
Text: as §1
as §2, with “All cumulative responses (relaxations and contractions) were normalised as percentages of the initial level of active force to carbachol. Results” for “Results”

For a further experiment, the system named is rat isolated bronchi.
Text: as §1
as §2, with “All cumulative responses (relaxations and contractions) were normalised as percentages of the initial level of active force to carbachol. Results” for “Results”

Another experiment relates to rat gastric fundus. The settings on record: mucosa intact, contracted with acetylcholine. From the text: Longitudinal strips of gastric fundus from male Sprague-Dawley rats were suspended under 1 g passive isometric tension in Krebs solution.
Experiment [4] deals with mice challenged with bacterial lipopolysaccharide. The settings on record: 2 mg/kg or 20 mg/kg intranasal before LPS.
Description: Mice were challenged with bacterial lipopolysaccharide (LPS; 10 μg/mouse) via intranasal administration under light halothane aneasthesia.
Three hours after receiving LPS, the mice were killed via an intraperitoneal injection of sodium pentabarbitone and the lungs were canulated and lavaged with 4×0.5 ml washes of phosphate buffered saline. The total number of cells retrieved by this procedure was determined with a haemocytometer. Differential counts of individual cell types were performed on cytospin preparations of the lavage fluid, stained with the conventional May-Grunwald/Giemsa blood stain. The total number of neutrophils in each sample was then calculated from the proportion of neutrophils in the cytospin preparations, as a proportion of the total number of cells retrieved.
The subject of experiment [5] is isolated human bronchioles. The method, then:
Small (500 μm) bronchioles were carefully dissected from discarded sections of human left lung which had been excised at surgery from two male lung cancer patients (Royal Melbourne Hospital, Melbourne, Australia).
Dissection of these bronchioles required a fine-dissecting microscope and an assistant to continually flood the preparation with cold oxygenated Krebs solution to remove air bubbles and keep the tissue viable. Bronchioles approximately 2 mm in length were then mounted on […] diameter stainless wires in a Krebs solution-filled myograph chamber, as described for the mouse bronchus preparation above.

The next experiment concerns human distal colon. The method, then: Human distal colon strips obtained at bowel resection were suspended at 1 g passive isometric force and contracted with substance P (30 μM) to maintain a steady level of active tension.
[6] abbreviates: desensitized to both thrombin and trypsin.

The term pEC50 denotes −log10 of the EC50, conventionally taken in molar units. In the case of SLIGRL-NH2 [SLIGRL—NH2], in the experiment with mouse bronchial rings, the “relaxation in presence of NO blockers” value is on record as “unaffected”, the “response of epithelium-intact bronchi” value was “powerful concentration dependent relaxations”, the “relaxation after removal of the epithelium” value is reported as “abolished” and the “response in presence of cyclooxygenase inhibitors” value was “abolished”. In addition, in the experiment with mouse bronchial rings, the “maximum relaxation (Rmax)” value was found to be 94±3%, the “sensitivity (pEC50)” value is given as 5.6±0.1 −log M, the “response after desensitisation to thrombin” value is “unaffected” and the “response after desensitisation to trypsin” value (shortened to “response … to trypsin”) was “abolished”. In the experiment on mouse bronchial rings (listed as PAR2-AP), the “response … to trypsin” value was “virtually abolished”. Further, in experiment [1], the “response of epithelium-intact rings” value is given as “Concentration dependent relaxations to PAR2-AP were observed in six out of thirteen bronchial rings”. Moreover, the “response of epithelium-denuded rings” value in experiment [1] (epithelium-denuded) is given as “either caused a small contraction or no response”. In [1] (guinea-pig bronchi), this substance came in with an Rmax of 31±5% and a pEC50 of 5.4±0.2. Moreover, the “relaxation” value in [2] (endothelium-intact) is recorded as “no relaxation”. In the experiment with rat bronchioles, the Rmax was determined as 67±5%; the pEC50 is 5.1±0.1 and 5.1±0.01. In [3], the “maximum relaxation (Rmax)” value is 58±4% and the “sensitivity (pEC50)” value stood at 5.1±0.05. In addition, in the experiment with rat isolated bronchi (rat bronchi), the Rmax stood at 56±5% and the pEC50 amounted to 5.5±0.1. For the same substance, in the experiment on rat gastric fundus, the “response of rat gastric fundus” value was “relaxation”. Further, the “effect on LPS-induced neutrophil infiltration into the lungs” value in experiment [4] is “dose-dependent inhibition of the increase of neutrophil infiltration into the lungs”. In experiment [5], the “response of human bronchioles” value is “appeared to cause some contraction, but this was most likely baseline drift”.
SFLLRN [SFLLRN—NH2]: in the experiment with mouse bronchial rings, the “relaxation in presence of NO blockers” value is on record as “unaffected”, the “response of epithelium-intact bronchi” value is “powerful concentration dependent relaxations”, the “relaxation after removal of the epithelium” value was “abolished” and the “response in presence of cyclooxygenase inhibitors” value was “converted to concentration-dependent contractions”. In the experiment with mouse bronchial rings, the “maximum relaxation (Rmax)” value worked out at 76±11%, the “sensitivity (pEC50)” value is listed as 5.6±0.1 −log M, the “response after desensitisation to thrombin” value is listed as “abolished” and the “response … to trypsin” value was “abolished”. Moreover, the “response of epithelium-intact rings” value in experiment [1] is on record as “only caused concentration-dependent contractions”. Moreover, in experiment [2] (setting [6]), the Rmax after desensitisation is listed as 92.0±5.0% and the pEC50 after desensitisation turned out to be 6.4±0.2. In experiment [2] (endothelium-denuded), the “relaxation after removal of the endothelium” value is “abolished”. In addition, in [2] (endothelium-intact, control), the “maximum (Rmax % contraction reversal)” value is recorded as 95.2±1.3% and the pEC50 was 6.9±0.1 −log M. The “pEC50, untreated control of desensitisation experiment” value in [2] (untreated, n=8) was 7.0±0.1. In experiment [3], the “maximum relaxation (Rmax)” value stood at 58±10% and the “sensitivity (pEC50)” value stood at 5.5±0.02. Moreover, the “response of rat bronchial rings” value with rat isolated bronchi is reported as “only caused a contraction”. The “response of human distal colon” value in the experiment with human distal colon was “relaxed in an apparently apaminin sensitive manner”. In addition, the “response of rat gastric fundus” value in the experiment with rat gastric fundus is “relaxation”. Also, the “response of human bronchioles” value in experiment [5] was “relaxed the bronchioles”. In experiment [5] (contracted to approximately 30% Fmax with carbachol), the “maximum relaxation relative to isoprenaline plus IBMX” value is “approximately 30%”.
